Source: patent US9255090B2, “Heterocyclyl derivatives and their use as prostaglandin D2 receptor modulators” (Actelion Pharmaceuticals Ltd., priority 2012, dated 2016)

Biological target: hCRTH2 receptor (Homo sapiens (Human), UniProt Q9Y5Y4)
Assay: hCRTH2 receptor membranes radioligand (3H-PGD2) displacement assay
Format: binding
Details: 3H-PGD2 radioligand displacement, HEK293-hCRTH2 membranes
Procedure, shortened: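 HEK293-hCRTH2 membranes, 20 μg/well; 3H-PGD2 added at 2.5 nM; binding buffer 50 mM Tris, 10 mM MnCl2, 1 mM EDTA, pH 7.0; 90 min RT; GF/C filtration, scintillation count. Nonspecific binding: PGD2 at […].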

Sequence of hCRTH2 receptor (Q9Y5Y4 whole entry): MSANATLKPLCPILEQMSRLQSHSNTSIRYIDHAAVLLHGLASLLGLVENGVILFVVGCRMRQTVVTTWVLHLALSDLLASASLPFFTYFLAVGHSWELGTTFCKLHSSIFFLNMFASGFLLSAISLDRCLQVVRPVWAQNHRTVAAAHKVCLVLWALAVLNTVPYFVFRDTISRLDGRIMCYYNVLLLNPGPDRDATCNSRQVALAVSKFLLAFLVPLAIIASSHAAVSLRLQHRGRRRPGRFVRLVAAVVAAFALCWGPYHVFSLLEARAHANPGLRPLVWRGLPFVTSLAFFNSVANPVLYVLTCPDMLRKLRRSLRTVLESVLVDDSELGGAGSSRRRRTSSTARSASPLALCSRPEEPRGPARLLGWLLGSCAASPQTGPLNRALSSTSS

Structure (SMILES)	IC50 [nM]
COc1ccc(CC(=O)O)cc1-c1ccc(Cl)c2c1CN(C(=O)CCCc1ccccc1F)CC2 [Example 74, (3-{5-Chloro-2-[4-(2-fluoro-phenyl)-butyryl]-1,2,3,4-tetrahydro-isoquinolin-8-yl}-4-methoxy-phenyl)-acetic acid]	10.5
COc1ccc(CC(=O)O)cc1-c1ccc(Cl)c2c1CN(C(=O)CCc1cn(C)c3ccccc13)CC2 [Example 75, (3-{5-Chloro-2-[3-(1-methyl-1H-indol-3-yl)-propionyl]-1,2,3,4-tetrahydro-isoquinolin-8-yl}-4-methoxy-phenyl)-acetic acid]	38.4
COc1ccc(CC(=O)O)cc1-c1ccc(Cl)c2c1CN(C(=O)CCc1ccccc1)CC2 [Example 76, {3-[5-Chloro-2-(3-phenyl-propionyl)-1,2,3,4-tetrahydro-isoquinolin-8-yl]-4-methoxy-phenyl}-acetic acid]	43.1
COc1ccc(CC(=O)O)cc1-c1ccc(Cl)c2c1CN(C(=O)CCN1CCCc3ccccc31)CC2 [Example 77, {3-[5-Chloro-2-(3-3,4-dihydro-2H-quinolin-1-yl-propionyl)-1,2,3,4-tetrahydro-isoquinolin-8-yl]-4-methoxy-phenyl}-acetic acid]	24
COc1ccc(CC(=O)O)cc1-c1ccc(Cl)c2c1CN(C(=O)CCN1CCc3ccccc31)CC2 [Example 78, {3-[5-Chloro-2-(3-2,3-dihydro-indol-1-yl-propionyl)-1,2,3,4-tetrahydro-isoquinolin-8-yl]-4-methoxy-phenyl}-acetic acid]	61.5
COc1ccc(CC(=O)O)cc1-c1ccc(Cl)c2c1CN(C(=O)CCc1c(C)[nH]c3ccccc13)CC2 [Example 79, (3-{5-Chloro-2-[3-(2-methyl-1H-indol-3-yl)-propionyl]-1,2,3,4-tetrahydro-isoquinolin-8-yl}-4-methoxy-phenyl)-acetic acid]	37.8
COc1ccc(CC(=O)O)cc1-c1ccc(F)c2c1CN(C(=O)[C@H]1C[C@@H]1c1ccccc1)CC2 [Example 81, {3-[5-Fluoro-2-((1S,2S)-2-phenyl-cyclopropanecarbonyl)-1,2,3,4-tetrahydro-isoquinolin-8-yl]-4-methoxy-phenyl}-acetic acid]	33.1
COc1ccc(CC(=O)O)cc1-c1ccc(C(F)(F)F)c2c1CN(C(=O)C1CC1)CC2 [Example 82, [3-(2-Cyclopropanecarbonyl-5-trifluoromethyl-1,2,3,4-tetrahydro-isoquinolin-8-yl)-4-methoxy-phenyl]-acetic acid]	250
COc1ccc(CC(=O)O)cc1-c1ccc(F)c2c1CN(C(=O)/C=C/c1ccccc1)CC2 [Example 85, (3-{5-Fluoro-2-[(E)-(3-phenyl-acryloyl)]-1,2,3,4-tetrahydro-isoquinolin-8-yl}-4-methoxy-phenyl)-acetic acid]	35.8
COc1ccc(/C=C/C(=O)N2CCc3c(F)ccc(-c4cc(CC(=O)O)ccc4OC)c3C2)cn1 [Example 86, (3-{5-Fluoro-2-[(E)-3-(6-methoxy-pyridin-3-yl)-acryloyl]-1,2,3,4-tetrahydro-isoquinolin-8-yl}-4-methoxy-phenyl)-acetic acid]	70.5
COc1ccc(CC(=O)O)cc1-c1ccc(F)c2c1CN(C(=O)/C=C/c1sc(C)nc1C)CC2 [Example 87, (3-{2-[(E)-3-(2,4-Dimethyl-thiazol-5-yl)-acryloyl]-5-fluoro-1,2,3,4-tetrahydro-isoquinolin-8-yl}-4-methoxy-phenyl)-acetic acid]	93.8
COc1ccc(CC(=O)O)cc1-c1ccc(F)c2c1CN(C(=O)/C=C/c1nc3ccccc3s1)CC2 [Example 88, {3-[2-((E)-3-Benzothiazol-2-yl-acryloyl)-5-fluoro-1,2,3,4-tetrahydro-isoquinolin-8-yl]-4-methoxy-phenyl}-acetic acid]	9.14
COc1ccc(CC(=O)O)cc1-c1ccc(F)c2c1CN(C(=O)/C=C/c1cccnc1)CC2 [Example 89, {3-[5-Fluoro-2-((E)-3-pyridin-3-yl-acryloyl)-1,2,3,4-tetrahydro-isoquinolin-8-yl]-4-methoxy-phenyl}-acetic acid]	57.2
COc1ccc(CC(=O)O)cc1-c1ccc(F)c2c1CN(C(=O)/C=C/c1cc(C)nn1C)CC2 [Example 90, (3-{2-[(E)-3-(2,5-Dimethyl-2H-pyrazol-3-yl)-acryloyl]-5-fluoro-1,2,3,4-tetrahydro-isoquinolin-8-yl}-4-methoxy-phenyl)-acetic acid]	49.1
COc1ccc(CC(=O)O)cc1-c1ccc(F)c2c1CN(C(=O)CCc1ccccn1)CC2 [Example 91, {3-[5-Fluoro-2-(3-pyridin-2-yl-propionyl)-1,2,3,4-tetrahydro-isoquinolin-8-yl]-4-methoxy-phenyl}-acetic acid]	32.1
COc1ccc(CC(=O)O)cc1-c1ccc(F)c2c1CN(C(=O)CCc1cccc(C)n1)CC2 [Example 92, (3-{5-Fluoro-2-[3-(6-methyl-pyridin-2-yl)-propionyl]-1,2,3,4-tetrahydro-isoquinolin-8-yl}-4-methoxy-phenyl)-acetic acid]	15.7

Structure (SMILES)	IC50 [nM]
COc1ccc(CC(=O)O)cc1-c1ccc(F)c2c1CN(C(=O)CCc1ncccn1)CC2 [Example 93, {3-[5-Fluoro-2-(3-pyrimidin-2-yl-propionyl)-1,2,3,4-tetrahydro-isoquinolin-8-yl]-4-methoxy-phenyl}-acetic acid]	690
COc1ccc(CC(=O)O)cc1-c1ccc(F)c2c1CN(C(=O)COc1cccnc1)CC2 [Example 94, (3-{5-Fluoro-2-[2-(pyridin-3-yloxy)-acetyl]-1,2,3,4-tetrahydro-isoquinolin-8-yl}-4-methoxy-phenyl)-acetic acid]	418
COc1ccc(CC(=O)O)cc1-c1ccc(F)c2c1CCN(C(=O)[C@@H]1C[C@H]1c1ccccc1)C2 [Example 99, {3-[8-Fluoro-2-((1R,2R)-2-phenyl-cyclopropanecarbonyl)-1,2,3,4-tetrahydro-isoquinolin-5-yl]-4-methoxy-phenyl}-acetic acid]	414
COc1ccc(CC(=O)O)cc1-c1ccc(F)c2c1CCN(C(=O)CCCc1ccccc1)C2 [Example 100, {3-[8-Fluoro-2-(4-phenyl-butyryl)-1,2,3,4-tetrahydro-isoquinolin-5-yl]-4-methoxy-phenyl}-acetic acid]	105
COc1ccc(CC(=O)O)cc1-c1ccc(F)c2c1CCN(C(=O)CCc1ccccc1)C2 [Example 101, {3-[8-Fluoro-2-(3-phenyl-propionyl)-1,2,3,4-tetrahydro-isoquinolin-5-yl]-4-methoxy-phenyl}-acetic acid]	64.7
COc1ccc(CC(=O)O)cc1-c1ccc(F)c2c1CCN(C(=O)CCOc1ccccc1)C2 [Example 102, {3-[8-Fluoro-2-(3-phenoxy-propionyl)-1,2,3,4-tetrahydro-isoquinolin-5-yl]-4-methoxy-phenyl}-acetic acid]	43
COc1ccc(CC(=O)O)cc1-c1ccc(F)c2c1CCN(C(=O)COCc1ccccc1Cl)C2 [Example 103, (3-{2-[2-(2-Chloro-benzyloxy)-acetyl]-8-fluoro-1,2,3,4-tetrahydro-isoquinolin-5-yl}-4-methoxy-phenyl)-acetic acid]	69.2
COc1ccc(CC(=O)O)cc1-c1ccc(F)c2c1CCN(C(=O)CCN1CCCc3ccccc31)C2 [Example 104, {3-[2-(3-3,4-Dihydro-2H-quinolin-1-yl-propionyl)-8-fluoro-1,2,3,4-tetrahydro-isoquinolin-5-yl]-4-methoxy-phenyl}-acetic acid]	21.3
COc1ccc(CC(=O)O)cc1-c1ccc(F)c2c1CCN(C(=O)CCc1cn(C)c3ccccc13)C2 [Example 105, (3-{8-Fluoro-2-[3-(1-methyl-1H-indol-3-yl)-propionyl]-1,2,3,4-tetrahydro-isoquinolin-5-yl}-4-methoxy-phenyl)-acetic acid]	17.7
COc1ccc(CC(=O)O)cc1-c1ccc(F)c2c1CN(C(=O)C[C@H](C)c1ccccc1)CC2 [Example 107, {3-[5-Fluoro-2-((S)-3-phenyl-butyryl)-1,2,3,4-tetrahydro-isoquinolin-8-yl]-4-methoxy-phenyl}-acetic acid]	18.3
COc1ccc(CC(=O)O)cc1-c1ccc(F)c2c1CN(C(=O)C1Cc3ccccc3C1)CC2 [Example 110, {3-[5-Fluoro-2-(indane-2-carbonyl)-1,2,3,4-tetrahydro-isoquinolin-8-yl]-4-methoxy-phenyl}-acetic acid]	172
COc1ccc(CC(=O)O)cc1-c1ccc(F)c2c1CN(C(=O)CC1Cc3ccccc3C1)CC2 [Example 111, {3-[5-Fluoro-2-(2-indan-2-yl-acetyl)-1,2,3,4-tetrahydro-isoquinolin-8-yl]-4-methoxy-phenyl}-acetic acid]	8.11
COc1ccc(CC(=O)O)cc1-c1ccc(F)c2c1CN(C(=O)CCCc1ccccc1)CC2 [Example 117, {3-[5-Fluoro-2-(4-phenyl-butyryl)-1,2,3,4-tetrahydro-isoquinolin-8-yl]-4-methoxy-phenyl}-acetic acid]	5.41
COc1ccc(CC(=O)O)cc1-c1ccc(F)c2c1CN(C(=O)CCC(=O)c1ccccc1)CC2 [Example 118, {3-[5-Fluoro-2-(4-oxo-4-phenyl-butyryl)-1,2,3,4-tetrahydro-isoquinolin-8-yl]-4-methoxy-phenyl}-acetic acid]	38.6
COc1ccc(CC(=O)O)cc1-c1ccc(F)c2c1CN(C(=O)Cc1cn(C)c3ccccc13)CC2 [Example 119, (3-{5-Fluoro-2-[2-(1-methyl-1H-indol-3-yl)-acetyl]-1,2,3,4-tetrahydro-isoquinolin-8-yl}-4-methoxy-phenyl)-acetic acid]	69.5
COc1ccc(CC(=O)O)cc1-c1ccc(F)c2c1CN(C(=O)Cc1noc3ccccc13)CC2 [Example 121, {3-[2-(2-Benzo[d]isoxazol-3-yl-acetyl)-5-fluoro-1,2,3,4-tetrahydro-isoquinolin-8-yl]-4-methoxy-phenyl}-acetic acid]	47.2
